The record followed here is publication PMC6120666 (The EMBO Journal, 2018).

The assay has as its target T1, cIAP1 BIR2 - RIPK2 interaction (Homo sapiens, UniProt O43353).
T1 construct: Pulldown of RIPK2 from U2OS/NOD2 cell lysates with recombinant; endogenous in cells; host or cells: U2OS/NOD2 cell lysate (RIPK2); E. coli BL21 (GST-BIR2-cIAP1)
Kind of assay: GST-BIR2-cIAP1 pulldown of RIPK2. It counts as binding. The conditions noted are these: U2OS/NOD2 lysates; CSLP37 1.8 μM, CSLP43 2 μM. As for the experimental part:
Figure EV4 Inhibition of RIPK2 ubiquitination and cIAP1 binding by CSLP inhibitors • A Coomassie Blue staining of His Trap and gel filtration purified His6‐GST‐XIAP‐BIR2 WT and D214S recombinant proteins at two different concentrations as indicated. • B Pulldown of RIPK2 from U2OS/NOD2 cell lysates with recombinant GST‐BIR2‐cIAP1 in the presence of CSLP inhibitors. […] Purified material and lysates were analyzed by immunoblotting. • C, D Purification of Ub‐conjugates from U2OS/NOD2 cells (C) or THP‐1 cells (D) after treatment with L18‐MDP (200 ng/ml, 1 h) and CSLP compounds as indicated. Purified material and lysates were analyzed by immunoblotting. […]
For co‐immunoprecipitation of HA‐XIAP with RIPK2, transfected and treated cells were lysed in TBS buffer containing 0.5% NP‐40, cOmplete and PhosSTOP inhibitors (Roche) and the lysate was cleared by centrifugation. The lysates were incubated with anti‐HA‐agarose overnight, washed 3× with lysis buffer, and analyzed by immunoblotting. […] Bound material was washed 3× with lysis buffer or PBS, eluted with 15 mM Glutathione in PBS, and analyzed by immunoblotting. […] The bound material was eluted and analyzed as described above. Ubiquitin conjugates were purified from treated cells using GST‐1xUBA^ubq ubiquitin affinity reagent (termed TUBE pulldown) and analyzed by immunoblotting as described (Fiil et al, 2013). […]

T1 sequence (O43353 whole entry): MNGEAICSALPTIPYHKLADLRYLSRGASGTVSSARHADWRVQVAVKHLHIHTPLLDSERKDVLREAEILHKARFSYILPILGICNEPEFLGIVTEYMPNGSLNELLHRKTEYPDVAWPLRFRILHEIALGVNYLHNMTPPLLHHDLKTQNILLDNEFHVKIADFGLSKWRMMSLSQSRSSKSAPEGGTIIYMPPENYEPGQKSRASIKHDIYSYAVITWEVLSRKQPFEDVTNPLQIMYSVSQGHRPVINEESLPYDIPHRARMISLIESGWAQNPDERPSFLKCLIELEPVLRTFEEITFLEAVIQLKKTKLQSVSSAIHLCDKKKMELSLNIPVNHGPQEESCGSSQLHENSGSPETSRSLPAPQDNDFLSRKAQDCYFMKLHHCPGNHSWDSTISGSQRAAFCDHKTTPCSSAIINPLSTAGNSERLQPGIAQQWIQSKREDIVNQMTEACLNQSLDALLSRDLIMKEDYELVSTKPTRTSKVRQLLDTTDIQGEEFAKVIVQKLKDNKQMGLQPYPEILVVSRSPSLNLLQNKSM

Consider `CCCS(=O)(=O)Nc1cc(-c2cc(-c3ccc(N4CCNCC4)cc3)cnc2N)cc(F)c1OC` [CSLP37], for which the “interaction between GST-BIR2-cIAP1 and RIPK2 in cell lysates” value is “both antagonized”.

Take `CCCS(=O)(=O)Nc1cc(-c2cc(-c3ccc(N4CCNCC4)cc3)cnc2N)cc(OC)c1OC` [CSLP43]: the “interaction between GST-BIR2-cIAP1 and RIPK2 in cell lysates” value is “both antagonized”.
